The record followed here is EPA's ToxValDB 9.5 (doi:10.2903/j.efsa.2016.4584).

For orientation: NOAEL means the highest tested level that showed no adverse finding. In general, LC50 refers to the concentration lethal to half of the exposed cells or organisms. Read a low LC50 as greater toxicity.

One series deals with Anas platyrhynchos. Conditions: acute; oral; unspecified; mortality.
In the next series the test system is Apis mellifera. Conditions: acute, mortality.
A further series has as its system Canidae. Particulars: subchronic; duration: 90 days; oral; Dog Other.
The test system of another series is Folsomia candida. Particulars: chronic/long-term; duration: 28 days; mortality.
The subject of another series is Landoltia sp. Conditions: chronic/long-term; duration: 8 weeks; frond number.
For another series, the system named is Mus musculus. Particulars: chronic; duration: 18 months; body weight.
The next series deals with Oncorhynchus mykiss. Conditions: acute; duration: 96 hours; mortality.
Another series has as its system Tagia sp. Conditions: chronic/long-term; duration: 56 days; growth.

Take `COC(=O)c1ccc(CNS(C)(=O)=O)cc1S(=O)(=O)NC(=O)Nc1nc(OC)cc(OC)n1` [Mesosulfuron-methyl]: the LD50 in the series with Anas platyrhynchos was more than 2000 mg/kg-day; in the series on Apis mellifera (dermal), more than 100 µg/piece; with Apis mellifera (oral, unspecified) it was more than 106 µg/piece; with Colinus virginianus (acute, oral, mortality), more than 2000 mg/kg-day; in the series with Rattus norvegicus (acute, oral, mortality), more than 5000 mg/kg. The values for the NOAEL with Canidae and with Mus musculus were 648 mg/kg-day and 103 mg/kg-day, respectively. The NOEL in the series on Colinus virginianus (chronic) was 93 mg/kg-day; with Rattus norvegicus (reproduction developmental, no effects) it was 840 mg/kg-day. For the same compound, the results for the NOEC in the series on Folsomia candida, in the series with Landoltia sp. and in the series on Tagia sp. were 1000 mg/kg, 0.000388 mg/L and 125 mg/kg, respectively. For the same compound, the LC50 in the series with Oncorhynchus mykiss was more than 100 µg/mL.
